Our source for the IC50 values is paper PMC9381133 (Molecular Cancer Therapeutics, 2022).

This experiment concerns the target T1, CD73 (ecto-5′-nucleotidase) (Mus musculus, UniProt Q61503).
T1 sequence (Q61503 29-551): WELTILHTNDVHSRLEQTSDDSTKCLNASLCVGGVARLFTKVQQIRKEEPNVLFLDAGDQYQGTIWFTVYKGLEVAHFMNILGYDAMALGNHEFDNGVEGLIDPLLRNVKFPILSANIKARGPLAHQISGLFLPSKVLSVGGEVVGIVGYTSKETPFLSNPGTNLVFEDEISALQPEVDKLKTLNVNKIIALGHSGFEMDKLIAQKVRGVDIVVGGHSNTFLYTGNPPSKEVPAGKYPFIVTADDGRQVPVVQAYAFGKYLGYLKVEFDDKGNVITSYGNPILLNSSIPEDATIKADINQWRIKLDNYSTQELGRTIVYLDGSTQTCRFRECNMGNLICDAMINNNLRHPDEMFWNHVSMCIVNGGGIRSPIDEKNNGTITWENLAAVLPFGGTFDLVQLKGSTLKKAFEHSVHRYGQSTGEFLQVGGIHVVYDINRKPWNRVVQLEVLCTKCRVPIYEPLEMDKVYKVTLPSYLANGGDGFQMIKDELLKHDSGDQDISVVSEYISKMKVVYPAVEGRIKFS
Put plainly: […]5-AMP hydrolysis in B16F10 tumor homogenate, LC/MS of […]5-adenosine. It counts as biochemical.

As a reminder, the IC50 is the midpoint of a concentration-inhibition curve. On to `C[C@H](Nc1cc(Cl)nc2c1cnn2[C@@H]1O[C@H](COP(=O)(O)CP(=O)(O)O)[C@@H](O)[C@H]1O)c1ccccc1F` [AB680], for which the IC50 was determined as 0.704 nM.
